Measurements from patent US8957087B2, “Heterocyclic substituted acardite derivate and application thereof” (Jiangsu Provincial Institute of Materia Medica Co., Ltd., priority 2009, dated 2015).
Several values for one entry are separate records, joined by “and”; a condition that tells them apart may be missing. Equal values may be shown once. Read-outs that look alike come from different tables or passages of the source. Marks after values point to notes of the source that are not given here.

What was measured:
[1] = tested on: mice S180 sarcoma; experiment: Experimental therapeutic action on S180 sarcoma mice; details: for Tumor growth inhibition rate (%): mice S180 sarcoma, 60 mg/kg orally for 9 days
[2] = tested on: human lung cancer A549 transplantation tumor; format: in vivo; details: BALB/cA nude mice; 60 mg/kg, 6 times every week for 3 weeks; Sorafenib oral 60 mg/kg
Summary of the method: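 Female BALB/cA nude mice, 35-40 days old, bearing A549 human lung cancer transplants; 6 per treatment group, 12 saline controls. Compound given at 60 mg/kg, 6 times weekly for 3 weeks, then observed one week.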

[3] = tested on: lung cancer cell A549; experiment: Effects on the adhesive ability of lung cancer cell A549; format: cell-based, human; details: Final concentration 1 x 1.0*10^(−5) mol/L
Summary of the method: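 A549 cells in 1640 medium with 10% FBS tested for adhesion to gelatin versus poly-lysine (PLL), with CCK8 used as read-out. Inhibition rate derived from the gelatin/PLL adhesion OD ratio of dosed cells relative to the undosed cell group.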

[4] = tested on: human umbilical vein endothelial cell HUVEC; experiment: Lumen formation ability of HUVEC (Matrigel method); format: cell-based; details: Final concentration 1 x 1.0*10^(−5) mol/L
Summary of the method: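 HUVEC at passage 3–5, cultured in M199 at 37° C under 5% CO2, were plated on Matrigel with compound. Spontaneous lumen formation was scored as an inhibition rate.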

[5] = tested on: human lung cancer cell strain A549; experiment: MTT assay, inhibition of growth of human lung cancer cell strain A549; format: cell-based
Summary of the method: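 A549 cells grown in F12 with 10% FBS; growth read by MTT, inhibition rate from blank-corrected OD of drug wells versus control wells.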

[6] = tested on: Human colon cancer HT-29 transplantable tumor; experiment: Human colon cancer HT-29 transplantable tumor in nude mice; details: for Relative tumor reproduction rate T/C (%): HT-29 in nude mice
[7] = tested on: human liver cancer cell bel-7402 transplantation tumor; format: in vivo; details: BALB/cA nude mice; 60 mg/kg, 6 times every week for 3 weeks; Sorafenib oral 60 mg/kg
Summary of the method: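 Female BALB/cA nude mice (35–40 days, 18–22 g) bearing Bel-7402 xenografts; 6 mice per treated group, 12 in saline controls. Compound dosed at 60 mg/kg, 6 times weekly for 3 weeks, followed by one week of observation; tumor inhibition rate scored against controls.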

[8] = tested on: human umbilical vein endothelial cell HUVEC; experiment: Growth of human umbilical vein endothelial cell HUVEC by CCK8 method; format: cell-based; details: Final concentration 1 x 1.0*10^(−5) mol/L
Summary of the method: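 HUVEC cells were grown in 1640 medium with 10% FBS, and growth was measured by the CCK8 method. OD values of drug and control wells were corrected by subtracting the blank-well OD.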

[9] = tested on: human high-metastic lung cancer cell 95D; experiment: Inhibition of human high-metastic lung cancer cell 95D migration (Boyden Chamber Transwell); format: cell-based; details: Final concentration 1 x 1.0*10^(−5) mol/L
Summary of the method: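 Boyden Transwell migration (8 μm pores) of 95D cells, RPMI-1640 with 10% FBS versus serum-free medium; inhibition rate calculated.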

[10] = tested on: renal carcinoma cell line GCR-1 transplanted tumor; format: in vivo, BALB/cA nude mice; details: BALB/cA nude mice; 60 mg/kg, 6 times every week for 3 weeks; Sorafenib oral 60 mg/kg
Summary of the method: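 Female BALB/cA nude mice (18–22 g) bearing GCR-1 renal carcinoma xenografts, 6 per treated group, 12 saline controls. Drug given at 60 mg/kg, 6 times weekly for 3 weeks, then one week of observation; tumor inhibition rate reported.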

[11] = tested on: Raf-1(truncated); experiment: Raf-1 inhibitor screening by chemoluminescence method; format: biochemical; details: Final concentration 1 x 1.0*10^−5 mol/ml
From the text: 1. Inhibitory activity of the compound of the present invention on raf kinase
Raf-1 inhibitor screening by chemoluminescence method
Westernblot electrophoresis apparatus Rotaryshaker
Raf-1(truncated), Magnesium/ATP Cocktail, MEK1 unactive

[12] = Final concentration 1 x 1.0*10^(−5) mol/L

Row | Molecule | Tumor growth inhibition rate (%) [1] | Relative tumor reproduction rate T/C (%) on human lung cancer A549 transplantation tumor in nude mice [2] | Inhibition rate, adhesion ability of human lung cancer cell A549 [3] | Inhibition rate, lumen formation ability of HUVEC [4] | Inhibition rate, growth of human lung cancer cell A549 [5] | Relative tumor reproduction rate T/C (%) ([6]; 60 mg/kg ig 9 times) | Relative tumor reproduction rate T/C (%) on human liver cancer cell bel-7402 transplantation tumor model in nude mice [7] | Inhibition rate, growth of HUVEC cell [8] | Inhibition rate, 95D cell strain migration [9] | Relative tumor reproduction rate T/C (%) on human renal carcinoma GCR-1 cell transplanted tumor model in nude mice [10] | Inhibition rate % on raf kinase [11] | other results
1 | CCNC(=O)c1cc(Oc2ccc(NC(=O)Nc3ccc(Cl)c(OC)c3)c(OC)c2)c2ccc([N+](=O)[O-])cc2n1 [Compound 36, N-(4-chloro-3-methoxyphenyl)-N′-(2-methoxyl-4-(2-(N-ethylcarbamyl)-4-(7-nitryl-quinolinyl)oxy)phenyl)urea] | 55.1% | 37.9% | 74.50% | 64.50% | 72.45% | 41.5% | 37.9% | 12.45% | 84.59% | 25.9% | 81.2% | 
2 | Cc1cc(Oc2ccc(NC(=O)Nc3ccc(Br)c(C(F)(F)F)c3)cc2)c[nH]1 [Compound 30, N-(4-bromo-3-(trifluoromethyl)phenyl)-N′-(4-(4-(2-methyl-pyrryl)oxy)phenyl)urea] | 55.2% | 13.1% | 92.44% | 90.66% | 85.47% | 79.5% | 16.1% | 25.46% | 69.62% | 10.2% | 16.8% | 
3 | Nc1ccc2c(Oc3ccc(NC(=O)Nc4ccc(Cl)c(C(F)(F)F)c4)cc3)cncc2c1 [Compound 25, N-(4-chloro-3-(trifluoromethyl)phenyl)-N′-(4-(4-(7-amino-isoquinolyl)oxy)phenyl)urea] | 55.8% | 39.4% | 63.51% | 79.79% | 63.26% | 79.5% | 29.1% | 23.26% | 59.76% | 31.2% | 11.5% | 
4 | CCNC(=O)c1cc(Oc2ccc(NC(=O)Nc3ccc(Cl)c(OC)c3)c(C)c2)c2ccc([N+](=O)[O-])cc2n1 [Compound 35, N-(4-chloro-3-methoxyphenyl)-N′-(2-methyl-4-(2-(N-ethylcarbamyl)-4-(7-nitryl-quinolinyl)oxy)phenyl)urea] | 55.8% | 23.6% | 75.72% | 65.70% | 55.74% | 51.2% | 34.5% | 5.74% | 68.47% | 32.3% | 45.3% | 
5 | N-(4-fluoro-3-(trifluoromethyl)phenyl)-N′-(4-(4-(2-methyl-pyrryl)oxy)phenyl)urea [Compound 29] | 14.2% | 14.7% | 91.40% | 86.43% | 86.42% | 78.3% | 16.2% | 21.40% | 61.44% | 12.8% | 85.3% | 
6 | CNC(=O)c1cc(Oc2ccc(NC(=O)Nc3ccc(F)c(C(F)(F)F)c3)cc2)c2cc(OC)ccc2n1 [Compound 2] |  | 35.3% | 75.15% | 75.14% |  |  | 35.4% | 13.11% | 85.17% | 23.2% | 61.1% | Tumor weight x ± SD ([1]; 60 mg/kg ig for 9 days, day 10): 0.87 ± 0.24 g; Tumor growth inhibition rate (%) ([1]; 60 mg/kg): 46.0% and 24.1%; Weight (g) Start ([1]; mouse body weight at start, 60 mg/kg ig): 18.9 ± 1.7 g; Weight (g) Final ([1]; mouse body weight final, 60 mg/kg ig for 9 days): 20.9 ± 2.3 g; Inhibition rate, growth of human lung cancer cell A549 [5, 12]: 61.11%; Relative tumor reproduction rate T/C (%) ([6]; 60 mg/kg ig 9 times, 60 mg/kg): 39.45%; Weight (g) d0 ([6]; nude mouse body weight d0, 60 mg/kg): 19.9 ± 0.8 g; Weight (g) d13 ([6]; nude mouse body weight d13, 60 mg/kg ig 9 times): 21.0 ± 0.8 g; RTV ([6]; relative tumor volume, 60 mg/kg ig 9 times): 2.00 ± 0.41; TV d0 ([6]; tumor volume d0, 60 mg/kg): 133 ± 23; TV d13 ([6]; tumor volume d13, 60 mg/kg ig 9 times): 265 ± 100
7 | COc1ccc2nccc(Oc3ccc(NC(=O)Nc4ccc(F)c(C(F)(F)F)c4)cc3)c2c1 [Compound 17] | 44.2% | 7.3% | 97.50% | 67.50% |  | 54.7% | 12.5% | 13.52% | 90.52% | 11.1% | 58.2% | Inhibition rate, growth of human lung cancer cell A549 [5, 12]: 88.52%
